Laboratory results: US20130230580A1, “Administration of SNS Neuroprotective Agents to Promote Hematopoietic Regeneration” (priority 2010, published 2013)

Experiments:
[1] = Complete blood counts of moribund cisplatin-treated mice after BMNC transplantation; format: in vivo; conditions: after BMT
Experimental: (§1) To protect from kidney damage, mice were simultaneously subcutaneously (s.c.) injected with 1 mL of saline solution. Four weeks after the last injection of cisplatin, mice were euthanized for analysis, transplanted (see below) or mobilized with granulocyte colony-stimulating factor (G-CSF, see below).
(§2) Mice were irradiated (1,200 cGy, two split doses, 3 hours apart) in a Cesium Mark 1 irradiator (JL Shepperd & associates). Three hours later, the indicated number of BMNCs was injected retroorbitally in the irradiated recipients under isoflurane (Phoenix Pharmaceuticals) anesthesia. Mice were allowed to recover and analyzed at the indicated time points.
Blood was harvested by retro-orbital sampling of mice anesthetized with isoflurane and collected in polypropylene tubes containing ethylenediaminetetraacetic acid (EDTA). Blood parameters were determined with an AcT differential counter (Beckman-Coulter). CFU-C assays were performed as described in He et al., Ann. Rev. Cell. Dev. Biol. 25:377 (2009), incorporated herein by reference. For flow cytometry, red blood cells were lysed thrice for 5 minutes at 4° C. in 0.15 M NH4Cl, cells were washed once in ice-cold PBS and counted in a hemocytometer. […] Cells were further stained with streptavidin-Cy5 (Jackson Immunotech) and analyzed with a BD LSR11 system (BD Biosciences). […] CFU-C and Lin^−Sca1^+c-kit^+ft13^− numbers were determined as above. […]

[2] = parameters: species or system mice; conditions: mouse, in vivo
Experimental: as §1
To induce neuroprotection from 60HDA, mice were injected with 4-MC (10 μg/kg; i.p.) or GDNF-Fc (5 μg per mice; s.c.) for 5 days, starting the treatment the same day as the first injection of 60HDA.
Mice received G-CSF ([…]) s.c. every 12 hours for 5 days. Due to circadian oscillations on HSC mobilization, the last dose of G-CSF was administered 1 hour before blood collection at Zeigeber time 5.
Blood was harvested by retro-orbital sampling of mice anesthetized with isoflurane and collected in polypropylene tubes containing ethylenediaminetetraacetic acid (EDTA). Blood parameters were determined with an AcT differential counter (Beckman-Coulter). CFU-C assays were performed as described in He et al., Ann. Rev. Cell. Dev. Biol. 25:377 (2009), incorporated herein by reference. For flow cytometry, red blood cells were lysed thrice for 5 minutes at 4° C. in 0.15 M NH4Cl, cells were washed once in ice-cold PBS and counted in a hemocytometer. […] Cells were further stained with streptavidin-Cy5 (Jackson Immunotech) and analyzed with a BD LSR11 system (BD Biosciences). Bone marrow was harvested by flushing the bone with 1 mL of ice-cold PBS, red blood cells were lysed once for 5 minutes at 4° C. in 0.15 M NH4Cl, cells were washed once in ice-cold PBS and counted with a hemocytometer. CFU-C and Lin^−Sca1^+c-kit^+ft13^− numbers were determined as above. In some experiments, CD150^+CD48^− cell numbers were determined by staining 5×10^6 cells with PE-anti-CD48 antibody (BD Biosciences) and PE-Cy7-anti-CD150 antibody (Biolegend).

[3] = tested on: TH+ fibers; test: Immunofluorescence quantification of TH+ sympathetic fibers in bone marrow / calvaria; conditions: compared with vehicle control
Experimental: Bones were collected and fixed for 1 hour in 4% paraformaldehyde (PFA) in PBS (Electron Microscopy Sciences) at 4° C. They were then post-fixed overnight in 1% PFA in PBS at 4° C. and cryoprotected for 24 hours in 30% sucrose. Bones were then included in OCT (Tissue Tek), sectioned (14 μm sections) in a Cryostat, and mounted on CFSA 4× Slides (Leica). TH^+ immunofluorescence staining was performed as previously described in Mendez-Ferrer, et al., Nature 452:442 (2008), incorporated herein by reference. For each mouse analyzed, the number of nerve fibers in 6 fields was quantified and plotted as per mm^2. For whole-mount immunofluorescence, calvaria were harvested by cutting along the temporal lines of the skull and immediately fixed in methanol. Bone tissues were blocked/permeabilized in PBS containing 20% FCS and 0.5% Triton and stained with APC-conjugated anti-PECAM CD31 antibody and TH (Millipore). Signal amplification for TH staining was achieved by using a signal amplification kit (Perkin Elmer). Whole-mount tissues were imaged face-down on an upright Olympus BX61WI microscope. The area between the frontal and parietal bones was identified by moving along the coronal suture and images were obtained from the same area for all mice, along the coronal vein on either side of the central vein. The numbers of individual nerve fibers running alongside blood vessels were quantified and plotted as per 100 μm vessel segment. All images were processed using Slidebook software (Intelligent Imaging Innovations, Inc.).

[4] = tested on: bone marrow; test: Bone marrow hematopoietic recovery after transplantation (BMNC, CFU-C, Lin-Sca1+c-kit+flt3- cells); format: in vivo, mice
Experimental: as §2, with “points. […]” for “points.”
Blood was harvested by retro-orbital sampling of mice anesthetized with isoflurane and collected in polypropylene tubes containing ethylenediaminetetraacetic acid (EDTA). Blood parameters were determined with an AcT differential counter (Beckman-Coulter). CFU-C assays were performed as described in He et al., Ann. Rev. Cell. Dev. Biol. 25:377 (2009), incorporated herein by reference. For flow cytometry, red blood cells were lysed thrice for 5 minutes at 4° C. in 0.15 M NH4Cl, cells were washed once in ice-cold PBS and counted in a hemocytometer. To determine Lin^−Sca1^+c-kit^+ or Lin^−Sca1^+c-kit^+ft13^− numbers, 10^6 cells were stained with the Mouse Lineage Panel (BD Biosciences) together with FITC-conjugated anti-Sca-1 antibody (BD Biosciences), PE-Cy7-conjugated anti-c-kit antibody (eBioscience) and PE-conjugated anti-flt3 antibody (eBioscience). Cells were further stained with streptavidin-Cy5 (Jackson Immunotech) and analyzed with a BD LSR11 system (BD Biosciences). Bone marrow was harvested by flushing the bone with 1 mL of ice-cold PBS, red blood cells were lysed once for 5 minutes at 4° C. in 0.15 M NH4Cl, cells were washed once in ice-cold PBS and counted with a hemocytometer. CFU-C and Lin^−Sca1^+c-kit^+ft13^− numbers were determined as above. In some experiments, CD150^+CD48^− cell numbers were determined by staining 5×10^6 cells with PE-anti-CD48 antibody (BD Biosciences) and PE-Cy7-anti-CD150 antibody (Biolegend).

[5] = format: in vivo; conditions: cisplatin-treated vs saline mice, seven weekly injections; listed as Cisplatin
Experimental: To protect from kidney damage, mice were simultaneously subcutaneously (s.c.) injected with 1 mL of saline solution. Four weeks after the last injection of cisplatin, mice were euthanized for analysis, transplanted (see below) or mobilized with granulocyte colony-stimulating factor (G-CSF, see below). […] To induce neuroprotection from 60HDA, mice were injected with 4-MC (10 μg/kg; i.p.) or GDNF-Fc (5 μg per mice; s.c.) for 5 days, starting the treatment the same day as the first injection of 60HDA. To evaluate the effect of different treatments on the sensory response, the hot-plate test was performed as described in Raaijmakers et al., Curr. Opin. Hematol. 15:301 (2008), incorporated herein by reference. An Isotemp Dryblock (Fisher Scientific) was heated to, and maintained at, 50° C. Mice were individually placed on top of the heated surface and the time to the first episode of nociception (jumping or paw licking) was measured. The cut-off time was 60 seconds. Between measurements, the heated surface was thoroughly cleaned with detergent and ethanol and the temperature was allowed to stabilize at 50° C.

[6] = tested on: PC12ES cells; test: Neural differentiation of PC12ES cells; format: cell-based; conditions: incubation for 1 week
Experimental: The murine cDNA for glial cell-line derived neurotrophic factor (Gdnf) was obtained from Open Biosystems. This cDNA was amplified and restriction sites were added for cloning with the following primers Forward: ACGCTAGCAATGGGATTCGGGCCACTT (SEQ ID NO:1); Reverse: CGAGATCTGCGATACATCCACACCGTTTAG (SEQ ID NO:2). The PCR product was purified and cloned into the PCL5.1neg plasmid to generate PCL5.1neg-GDNF. This plasmid was purified and transfected into 293T cells. Two days after transfection, the supernatant was collected and GDNF-Fc purified in a Protein G-sepharose column (Pierce). To assess functional activity of GDNF-Fc recombinant protein, PC12ES cells were cultured in DMEM supplemented with 5% FBS, 10% horse serum, sodium-pyruvate (Gibco), L-Glutamine (Gibco) and penicillin/streptomycin (Gibco) for 3 days and then the media was replaced with DMEM supplemented with 1% horse serum, sodium-pyruvate (Gibco), L-Glutamine (Gibco), penicillin/streptomycin (Gibco) and varying amounts of GDNF-Fc to induce differentiation. Seven days later the percentage of PC12 ES cells with two or more dendrites was scored under an inverted microscope. For each concentration of GDNF-Fc, 10 fields were analyzed.

Molecule	anemia in moribund mice [1]	number of mobilized progenitors in blood after G-CSF [2]	progenitor and Lin-Sca1+c-kit+flt3- HSC numbers in BM [2]	reduction in number of mobilized progenitors in blood [2]	reduction of density of TH+ fibers in bone marrow [3] [%]	bone marrow cellularity of surviving mice after transplantation ([4]; cisplatin-treated, four weeks after BMT)	BM recovery 3 months after transplantation ([4]; mouse, in vivo)	HSC content by competitive repopulation assays ([4]; mouse, in vivo)	sensory neuropathy (latency time in nociception assay) [5]	neural differentiation of PC12ES cells (percent differentiated) [6]
N.N.[Cl][Pt][Cl] [cisplatin]	severe anemia	markedly reduced	no significant change	approximately 50%	65	severely aplastic	not yet completely recovered	reduced HSC content	induces peripheral neuropathy	–
GDNF-HA: glial cell-derived neurotrophic factor-hemagluttinin fusion (protein, UniProt P39905 78-211, looked up, hemagglutinin tag, glial cell-derived neurotrophic factor-hemagluttinin fusion) Glial cell line-derived …: SPDKQMAVLPRRERNRQAAAANPENSRGKGRRGQRGKNRGCVLTAIHLNVTDLGLGYETKEELIFRYCSGSCDAAETTYDKILKNLSRNRRLVSDKVGQACCRPIAFDDDLSFLDDNLVYHILRKHSAKRCGCI	–	–	–	–	–	–	–	–	–	increase in the percent differentiation
